Data taken from patent US8030300B2, “Ligands for nicotinic acetylcholine receptors, and methods of making and using them” (priority 2003, dated 2011).
Where two headings read alike, the source gives them in different places.

How the values were obtained:
Test in all cases: biochemical
Format in all cases: binding
[1] = molecular target: T1, receptors in rat forebrain (mainly α4β2) (Rattus norvegicus, UniProt P09483+P12390)
T1 construct: from tissue; host or cells: rat forebrain homogenate
From the text: (§1) In order to assess the steric and hydropathic effects of the C-5 substituents of the pyridine on the binding affinity and subtype-selectivity at neuronal nicotinic acetylcholine receptors. […] The binding affinity ratios for a ligand, calculated from its affinities at an α subunit paired with either the β2 osubunit or the β4 subunit, represents a measure of the selectivity of that ligand with regard to the β subunits.
In Vitro Inhibition of ^3H-Epibatidin Binding
The high affinity binding site for ^3H-epibatidin is most certainly binding to the α4β2 subtype of nicotinic receptors. The identity of the low affinity site is still believed to be unknown.
Tissue preparation: Preparations may be performed at 0-4° C. unless otherwise indicated. […] The tissue suspension may then be centrifuged at 27,000×g for 10 min. The supernatant is then discarded and the pellet may then be washed three times by centrifugation at 27,000×g for 10 min in 20 mL fresh buffer, and the final pellet may be resuspended in fresh buffer (400 mL per g of original tissue) and used for binding assays.
Assay: Aliquots of 2.0 mL homogenate may be added to 0.100 mL of test solution and 0.100 mL of ^3H-epibatidin (0.3 nM, final concentration), mixed and incubated for 60 min at room temperature. […] The amount of radioactivity on the filters may be determined by conventional liquid scintillation counting. Specific binding is total binding minus non-specific binding.

[2] = molecular target: T2, α4β4 nAChR subtype (Rattus norvegicus, UniProt P09483+P12392)
T2 construct: expressed in transfected cells
T2 sequence (P12392 21-495): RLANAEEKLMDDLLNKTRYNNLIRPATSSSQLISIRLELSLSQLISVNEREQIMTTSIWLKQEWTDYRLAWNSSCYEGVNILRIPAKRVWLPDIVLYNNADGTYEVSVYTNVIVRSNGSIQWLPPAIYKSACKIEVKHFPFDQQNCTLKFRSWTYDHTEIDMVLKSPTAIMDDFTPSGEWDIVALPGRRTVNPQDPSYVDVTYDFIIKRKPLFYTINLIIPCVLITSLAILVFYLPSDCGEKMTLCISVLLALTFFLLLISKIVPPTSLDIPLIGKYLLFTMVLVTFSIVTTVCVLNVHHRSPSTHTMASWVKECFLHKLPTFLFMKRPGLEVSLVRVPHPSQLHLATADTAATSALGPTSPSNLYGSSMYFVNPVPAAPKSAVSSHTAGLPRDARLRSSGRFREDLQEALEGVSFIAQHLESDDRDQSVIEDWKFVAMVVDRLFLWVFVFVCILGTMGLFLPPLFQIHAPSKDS
T2 sequence (P09483 31-630): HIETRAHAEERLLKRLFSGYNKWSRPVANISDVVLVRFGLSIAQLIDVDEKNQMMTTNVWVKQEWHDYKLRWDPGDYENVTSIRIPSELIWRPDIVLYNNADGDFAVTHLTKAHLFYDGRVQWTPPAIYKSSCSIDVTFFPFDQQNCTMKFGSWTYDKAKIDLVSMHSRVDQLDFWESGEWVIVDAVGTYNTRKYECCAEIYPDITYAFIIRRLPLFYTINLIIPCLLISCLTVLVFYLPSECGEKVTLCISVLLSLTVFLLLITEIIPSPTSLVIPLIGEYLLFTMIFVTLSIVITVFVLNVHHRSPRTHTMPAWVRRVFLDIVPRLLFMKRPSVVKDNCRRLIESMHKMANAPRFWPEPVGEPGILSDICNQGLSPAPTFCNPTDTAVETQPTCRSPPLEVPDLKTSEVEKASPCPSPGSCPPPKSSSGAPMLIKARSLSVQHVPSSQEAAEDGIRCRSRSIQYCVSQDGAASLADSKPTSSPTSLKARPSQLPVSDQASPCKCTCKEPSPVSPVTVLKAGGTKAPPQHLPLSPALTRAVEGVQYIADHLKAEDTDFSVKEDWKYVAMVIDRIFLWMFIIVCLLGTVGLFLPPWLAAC
From the text: as §1

[3] = molecular target: T3, α3β2 nAChR subtype (Rattus norvegicus, UniProt P04757+P12390)
T3 construct: expressed in transfected cells
T3 sequence (P12390 25-500): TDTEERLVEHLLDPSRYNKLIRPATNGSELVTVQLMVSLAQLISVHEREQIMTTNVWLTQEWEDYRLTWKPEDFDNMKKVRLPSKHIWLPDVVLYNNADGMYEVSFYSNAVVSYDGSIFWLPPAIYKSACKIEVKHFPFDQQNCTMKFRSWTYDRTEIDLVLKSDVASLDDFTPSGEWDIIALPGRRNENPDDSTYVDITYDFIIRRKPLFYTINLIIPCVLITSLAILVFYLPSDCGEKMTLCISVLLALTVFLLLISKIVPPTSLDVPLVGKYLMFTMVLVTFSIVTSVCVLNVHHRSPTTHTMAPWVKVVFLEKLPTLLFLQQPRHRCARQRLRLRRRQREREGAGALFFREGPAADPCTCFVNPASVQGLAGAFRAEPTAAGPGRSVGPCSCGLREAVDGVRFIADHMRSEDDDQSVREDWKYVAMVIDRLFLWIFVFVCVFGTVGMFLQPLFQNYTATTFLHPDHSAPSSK
T3 sequence (P04757 26-499): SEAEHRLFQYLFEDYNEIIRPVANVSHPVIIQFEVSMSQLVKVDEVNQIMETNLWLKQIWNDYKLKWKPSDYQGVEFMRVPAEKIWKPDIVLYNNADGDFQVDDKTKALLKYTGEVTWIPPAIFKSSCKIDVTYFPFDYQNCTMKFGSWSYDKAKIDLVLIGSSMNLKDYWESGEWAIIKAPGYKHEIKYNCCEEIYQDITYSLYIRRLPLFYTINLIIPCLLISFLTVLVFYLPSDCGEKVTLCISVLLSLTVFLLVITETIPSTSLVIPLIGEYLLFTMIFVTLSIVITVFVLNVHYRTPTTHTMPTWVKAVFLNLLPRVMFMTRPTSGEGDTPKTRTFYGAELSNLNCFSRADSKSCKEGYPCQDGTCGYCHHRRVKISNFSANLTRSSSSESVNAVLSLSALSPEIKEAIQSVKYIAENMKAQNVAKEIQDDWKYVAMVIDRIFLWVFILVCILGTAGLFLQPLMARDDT
From the text: as §1

[4] = molecular target: T4, α4β2 nAChR subtype (Rattus norvegicus, UniProt P09483+P12390)
T4 construct: expressed in transfected cells
T4 sequence (P12390 25-500): as the sequence (P12390 25-500) above
T4 sequence (P09483 31-630): as the sequence (P09483 31-630) above
From the text: as §1

[5] = molecular target: T5, α2β4 nAChR subtype (Rattus norvegicus, UniProt P12389+P12392)
T5 construct: expressed in transfected cells
T5 sequence (P12389 28-511): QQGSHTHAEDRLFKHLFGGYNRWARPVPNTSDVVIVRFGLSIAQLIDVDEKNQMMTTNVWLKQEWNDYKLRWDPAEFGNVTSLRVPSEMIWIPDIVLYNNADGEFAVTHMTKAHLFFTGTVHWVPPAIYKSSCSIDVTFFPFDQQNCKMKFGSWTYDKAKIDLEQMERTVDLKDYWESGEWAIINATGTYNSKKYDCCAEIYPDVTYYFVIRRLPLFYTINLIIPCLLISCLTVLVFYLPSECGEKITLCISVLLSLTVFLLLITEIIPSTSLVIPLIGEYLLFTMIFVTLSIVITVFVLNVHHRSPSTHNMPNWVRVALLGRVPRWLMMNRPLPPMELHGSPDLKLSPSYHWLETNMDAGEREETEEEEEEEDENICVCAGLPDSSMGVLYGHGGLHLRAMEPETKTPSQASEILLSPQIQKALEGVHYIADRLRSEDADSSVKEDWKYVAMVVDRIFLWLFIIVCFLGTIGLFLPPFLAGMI
T5 sequence (P12392 21-495): as the sequence (P12392 21-495) above
From the text: as §1

[6] = molecular target: T6, α3β4 nAChR subtype (Rattus norvegicus, UniProt P04757+P12392)
T6 construct: expressed in transfected cells
T6 sequence (P04757 26-499): as the sequence (P04757 26-499) above
T6 sequence (P12392 21-495): as the sequence (P12392 21-495) above
From the text: as §1

[7] = molecular target: T7, α2β2 nAChR subtype (Rattus norvegicus, UniProt P12389+P12390)
T7 construct: expressed in transfected cells
T7 sequence (P12390 25-500): as the sequence (P12390 25-500) above
T7 sequence (P12389 28-511): as the sequence (P12389 28-511) above
From the text: as §1

[8] = Ki α4β2*, Table 5, *Rat forebrain, mainly α4β2
[9] = Ki α4β4, Table 5, rat nAChR subtypes
[10] = Ki α3β2, Table 5, rat nAChR subtypes
[11] = Ki α4β2, Table 5, rat nAChR subtypes
[12] = Ki α2β4, Table 5, rat nAChR subtypes
[13] = Ki α3β4, Table 5, rat nAChR subtypes
[14] = Ki α2β2, Table 5, rat nAChR subtypes

T1 sequence (P09483 31-630): as the sequence (P09483 31-630) above
T1 sequence (P12390 25-500): as the sequence (P12390 25-500) above

Row | SMILES | Ki [1, 8] | Ki [2, 9] | Ki [3, 10] | Ki [4, 11] | Ki [5, 12] | Ki [6, 13] | Ki [7, 14] | further results
1 | OCCCCC#Cc1cncc(C2CC3CCC2N3)c1 (stereo not drawn) [Ligand 31, 2-exo-(5-(6-Hydroxy-1-hexynyl)-3-pyridyl)-7-azabicyclo[2.2.1]heptane] | 0.215 nM | 15.4 nM | 0.146 nM | 0.166 nM | 45.1 nM | 266 nM | 0.352 nM | –
2 | FCCCCC#Cc1cncc(OC[C@@H]2CCN2)c1 [Ligand 41, 5-(6-Fluoro-1-hexynyl)-3-(2(S)-azetidinylmethoxy)pyridine] | 0.362 nM | 118 nM | 0.635 nM | 0.201 nM | 197 nM | 5490 nM | 0.796 nM | –
3 | O=c1cccc2n1C[C@H]1C[C@@H]2CN(CCCCCN2C[C@@H]3C[C@H](C2)c2cccc(=O)n2C3)C1 [ZW-19] | – | – | – | – | – | – | – | Ki [1]: 603 nM; Ki [2]: 468 nM; Ki [3]: > 1000 nM; Ki [4]: 383 nM; Ki [5]: 1430 nM; Ki [6]: > 10000 nM; Ki [7]: 240 nM
4 | CCCCC#Cc1cncc(OC[C@@H]2CCCN2C)c1 [Ligand 12, 5-(1-Hexynyl)-3-(1-methyl-2(S)-pyrrolidinylmethoxy)pyridine] | – | – | – | – | – | – | – | Ki ([1]; Table 5, *Rat forebrain, mainly α4β2, read-out: Ki α4β2*): 6.81 nM; Ki ([2]; Table 5, rat nAChR subtypes, read-out: Ki α4β4): 1410 nM; Ki ([3]; Table 5, rat nAChR subtypes, read-out: Ki α3β2): 20.3 nM; Ki ([4]; Table 5, rat nAChR subtypes, read-out: Ki α4β2): 2.61 nM; Ki ([5]; Table 5, rat nAChR subtypes, read-out: Ki α2β4): 1720 nM; Ki ([6]; Table 5, rat nAChR subtypes, read-out: Ki α3β4): 9560 nM; Ki ([7]; Table 5, rat nAChR subtypes, read-out: Ki α2β2): 13.4 nM
5 | Clc1ccc(C2CC3CC4(OCCO4)C2N3)cn1 (stereo not drawn) [ZW-82] | 304 nM | 53.1 nM | 147 nM | 57.3 nM | 93.8 nM | 173 nM | 30 nM | –
6 | CN1CCC[C@H]1COc1cncc(C#CC(C)(C)O)c1 [Ligand 15] | – | – | – | – | – | – | – | Ki [1]: 8.39 nM; Ki [2]: 5060 nM; Ki [3]: 19.7 nM; Ki [4]: 1.34 nM; Ki [5]: 5890 nM; Ki [6]: 32600 nM; Ki [7]: 1.93 nM
7 | OC1C2CCC(N2)C1c1ccc(Cl)nc1 (single isomer, unassigned) [Ligand 3, 2-exo-(2-Chloro-5-pyridyl)-3-endo-hydroxyl-7-azabicyclo[2.2.1]heptane] | 4.79 nM | 11.2 nM | 7.31 nM | 2.92 nM | 15.3 nM | 39.1 nM | 2.49 nM | –
8 | O=C1CC2NC1CC2c1ccc(Cl)nc1 (stereo not drawn) [Ligand 4, 2-exo-(2-Chloro-5-pyridyl)-7-azabicyclo[2.2.1]heptan-5-one] | 4570 nM | 3240 nM | 1890 nM | 7080 nM | 1140 nM | 4430 nM | 642 nM | –
9 | c1cncc(OC[C@@H]2CCN2)c1 [Ligand A-85380, reference compound] | 0.248 nM | 8.04 nM | 0.208 nM | 0.142 nM | 18.4 nM | 77.7 nM | 0.073 nM | Ki ([1]; Ki α4β2**, Table 6, **Forebrain mainly α4β2, [3H]-EB 0.099 nM, 0.091 nM, n = 1): 0.248 nM; Ki ([2]; Ki α4β4, Table 6, [3H]-EB 0.099 nM, 0.091 nM, ligand 0.00197-100 μM, n = 1): 8.04 nM; Ki ([3]; Ki α3β2, Table 6, [3H]-EB 0.099 nM, 0.091 nM, ligand 0.00197-100 μM, n = 1): 0.208 nM; Ki ([4]; Ki α4β2, Table 6, [3H]-EB 0.099 nM, 0.091 nM, ligand 0.00197-100 μM, n = 1): 0.142 nM; Ki ([5]; Ki α2β4, Table 6, [3H]-EB 0.099 nM, 0.091 nM, ligand 0.00197-100 μM, n = 1): 18.4 nM; Ki ([6]; Ki α3β4, Table 6, [3H]-EB 0.099 nM, 0.091 nM, ligand 0.00197-100 μM, n = 1): 77.7 nM
10 | CCCCCc1cncc(C2CC3CCC2N3)c1 (stereo not drawn) [ZW-95] | 0.314 nM | 7.91 nM | 0.165 nM | 0.151 nM | 24.9 nM | 122 nM | 0.323 nM | –
11 | O=c1cccc2n1C[C@H]1C[C@@H]2CN(CCCCl)C1 [ZW-16] | – | – | – | – | – | – | – | Ki [1]: 1500 nM; Ki [2]: 732 nM; Ki [3]: > 1000 nM; Ki [4]: 571 nM; Ki [5]: 2630 nM; Ki [6]: > 10000 nM; Ki [7]: 1340 nM
12 | CN1CCC[C@H]1COc1cncc(C#CCCCCCCCCO)c1 [Ligand 17] | – | – | – | – | – | – | – | Ki ([1]; Ki Rat forebrain, Table 1, mean of 3 (1, 2: 3 to 6) independent measurements): 21.7 nM; Ki ([2]; Ki α4β4, Table 1, mean of 3 (1, 2: 3 to 6) independent measurements): 3560 nM; Ki ([3]; Ki α3β2, Table 1, mean of 3 (1, 2: 3 to 6) independent measurements): 52.1 nM; Ki ([4]; Ki α4β2, Table 1, mean of 3 (1, 2: 3 to 6) independent measurements): 6.5 nM; Ki ([5]; Ki α2β4, Table 1, mean of 3 (1, 2: 3 to 6) independent measurements): 7800 nM; Ki ([6]; Ki α3β4, Table 1, mean of 3 (1, 2: 3 to 6) independent measurements): 62700 nM; Ki ([7]; Ki α2β2, Table 1, mean of 3 (1, 2: 3 to 6) independent measurements): 26.8 nM
